From US6548506B2, “Benzo[1,8]naphthyridine derivatives, their preparation and pharmaceutical compositions which comprise them” (Aventis Pharma S.A., priority 1998, dated 2003)

Assays:
Format in all cases: in vivo
[1] = tested on: Staphylococcus aureus ATCC 25923; assay: Model of infection of the guinea-pig with Staphylococcus aureus ATCC 25923; conditions: about 2% in a cetomacrogol and benzyl alcohol formulation; guinea-pig infected with S. aureus ATCC 25923
[2] = tested on: Staphylococcus aureus AS 5155; assay: Model of experimental infection of the guinea pig with Staphylococcus aureus AS 5155; conditions: about 2%; guinea pig infected with S. aureus AS 5155, resistant to meticillin, MLSB and quinolones
[3] = 2-week topical application toxicity in rat; conditions: 2 weeks topical application b.i.d., composition at about 2, about 5 and about 10%
[4] = 2-week topical application to nasal mucous membrane of rabbit, toxicity; conditions: 2 weeks topical application b.i.d., composition at about 2%

In the case of `Cn1cc(C(=O)O)c(=O)c2cc3cc(F)c(N4CCN(c5ccc(F)cc5)CC4)cc3nc21` [Example 1, 7-Fluoro-8-[4-(4-fluorophenyl)piperazin-1-yl]-1-methyl-4-oxo-1,4-dihydrobenzo[b][1,8]-naphthyridine-3-carboxylic Acid], the in vivo activity [1] is reported as “active”, the in vivo activity [2] is reported as “active” and the toxic effect [3] is reported as “no toxic effect was observed”. The toxic effect [4] was “no toxic effect was observed”.
